Measured values as given in patent US9617310B2 (priority 2013, dated 2017).

Experiments:
Format in all cases: cell-based
[1] = test system: NS3/4a protease inhibitor resistant variant R155K in genotype 1a transient HCV replicon; assay: Transient-transfected HCV replicon, genotype 1a R155K; conditions: Hepatitis C virus, 72 h, read-out: EC50 1A R155K
[2] = test system: genotype 3a transient HCV replicon (S52) in Huh-7-derived cells; assay: Transient-transfected HCV replicon, genotype 3a wild type; conditions: Hepatitis C virus; transient-transfected replicon genotype 3a wild type, 72 h; read-out: EC50 3A WT
[3] = test system: genotype 1b wild-type transient HCV replicon in Huh-7-derived cells; assay: Transient-transfected HCV replicon, genotype 1b wild type; conditions: Hepatitis C virus; transient-transfected replicon genotype 1b wild type, 72 h; read-out: EC50 1B WT
[4] = test system: genotype 1b stable HCV replicon (Con1) in Huh-7-derived cells; assay: Stable subgenomic HCV replicon, genotype 1b, Renilla luciferase; conditions: Hepatitis C virus, stable replicon genotype 1b, 72 h, read-out: EC50 1B RLUC
Description: Antiviral potency (EC50) was determined in both stable subgenomic HCV replicon cell lines and transient-transfected HCV replicon cells. The term half maximal effective concentration (EC50) refers to the concentration of a drug which induces a response halfway between the baseline and maximum after the exposure time specified below.
Stable subgenomic HCV replicons for genotype 1a, 1b, 2a, 3a, and 4a were established in Huh-7-derived cells as described by Lohmann et al (Lohmann V, Korner F, Koch J, et al Replication of subgenomic hepatitis C virus RNAs in a hepatoma cell line. Science 1999; 285:119-3). Each stable cell line contains a bicistronic HCV replicon that encodes a humanized Renilla luciferase (hRLuc) reporter gene fused to a selectable neomycin-resistance gene, followed by an EMCV IRES and the NS3-NS5B coding region of HCV. […] Luciferase activity was measured as a marker for intracellular HCV replication levels.
The genotype 1a stable replicon was derived from the H77 HCV strain and contained adaptive mutations P1496L and S2204I. The genotype 1b stable replicon was derived from the Con1 HCV strain and contained adaptive mutations E1202G, T1280I, and K1846T. […] The genotype 3a stable replicon was derived from the S52 HCV strain and contained adaptive mutations P1121 L, A1198T and S2210I (equivalent to S2204I in genotype 1). The genotype 4a stable replicon was derived from the ED43 HCV strain and contained adaptive mutations Q1691R and S2204I. All replicon cell lines were propagated in Huh-7-derived cells and maintained in Dulbecco's modified Eagle's Medium (DMEM) supplemented with 10% fetal bovine serum (FBS) and 0.5 mg/ml G418.
To perform EC50 assays, cells from each HCV replicon were dispensed into 384-well plates. Compounds were dissolved in DMSO at a concentration of 10 mM and diluted in DMSO using an automated pipetting instrument. Three-fold serially diluted compounds were directly added to the cells using an automated instrument. DMSO was used as a negative (solvent; no inhibition) control, and a combination of three HCV inhibitors including a protease inhibitor; an NS5A inhibitor and a nucleoside inhibitor was used at concentrations >100×EC50 as a positive control (100% inhibition). Seventy-two hours later, cells were lysed and Renilla luciferase activity were quantified as recommended by the manufacturer (Promega-Madison, Wis.). Non-linear regression was performed to calculate […], values.

[5] = test system: NS3/4a protease inhibitor resistant variant D168A in genotype 1b transient HCV replicon; assay: Transient-transfected HCV replicon, genotype 1b D168A; conditions: Hepatitis C virus, 72 h, read-out: EC50 1B D168A
[6] = test system: genotype 1a (H77) wild-type transient HCV replicon in Huh-7-derived cells; assay: Transient-transfected HCV replicon, genotype 1a wild type; conditions: Hepatitis C virus; transient-transfected replicon genotype 1a wild type, 72 h; read-out: EC50 1A WT

| Compound | EC50 [1] [nM] | EC50 [2] [nM] | EC50 [3] [nM] | EC50 [4] [nM] | EC50 [5] [nM] | EC50 [6] [nM] |
| --- | --- | --- | --- | --- | --- | --- |
| CC(C)(C)[C@@H]1NC(=O)O[C@@H]2C[C@@H]3C[C@@H]3[C@H]2CCCCCc2nc3ccc4ccccc4c3nc2OC2C[C@@H](C(=O)N[C@]3(C(=O)NS(=O)(=O)C4(C)CC4)C[C@H]3C(F)F)N(C2)C1=O (stereo partly drawn) [Example 22, (33R,35S,91S,93R,94R,95S,5S)-5-(tert-butyl)-N-((1R,2R)-2-(difluoromethyl)-1-(((1-methylcyclopropyl)sulfonyl)carbamoyl)cyclopropyl)-4,7-dioxo-2,8-dioxa-6-aza-1(2,3)-benzo[f]quinoxalina-3(3,1)-pyrrolidina-9(3,4)-bicyclo[3.1.0]hexanacyclotetradecaphane-35-carboxamide] | 2.7 | 5.5 | 2 | 5.06 | 18 | 1.7 |
| CC(C)(C)[C@@H]1NC(=O)O[C@@H]2C[C@@H]3C[C@@H]3[C@H]2CCCCCc2nc3ccc(C#N)cc3nc2O[C@@H]2C[C@@H](C(=O)N[C@]3(C(=O)NS(=O)(=O)C4(C)CC4)C[C@H]3C(F)F)N(C2)C1=O [Example 23, (33R,35S,91S,93R,94R,95S,5S)-5-(tert-butyl)-17-cyano-N-((1R,2R)-2-(difluoromethyl)-1-(((1-methylcyclopropyl)sulfonyl)carbamoyl)cyclopropyl)-4,7-dioxo-2,8-dioxa-6-aza-1(2,3)-quinoxalina-3(3,1)-pyrrolidina-9(3,4)-bicyclo[3.1.0]hexanacyclotetradecaphane-35-carboxamide] | 2.3 | 9.5 | 0.9 | 2.93 | 11 | 1.2 |
| CC(C)(C)[C@@H]1NC(=O)O[C@@H]2C[C@@H]3C[C@@H]3[C@H]2CCCCCn2c(nc3ccccc3c2=O)O[C@@H]2C[C@@H](C(=O)N[C@]3(C(=O)NS(=O)(=O)C4(C)CC4)C[C@H]3C(F)F)N(C2)C1=O [Example 24, (1aS,2aR,6S,9S,11R,24aR,24bS)-6-tert-butyl-N-[(1R,2R)-2-(difluoromethyl)-1-{[(1-methylcyclopropyl)sulfonyl]carbamoyl}cyclopropyl]-4,7,18-trioxo-1a,2,2a,4,5,6,7,10,11,20,21,22,23,24,24a,24b-hexadecahydro-1H,9H,18H-8,11-methanocyclopropa[4′,5′]cyclopenta[1′,2′:18,19][1,10,3,6,12]dioxatriazacyclonona decino[11,12-b]quinazoline-9-carboxamide] | 1.5 | 7.6 | 0.8 | 3.02 | 3.3 | 1.7 |
| CC(C)(C)[C@@H]1NC(=O)O[C@@H]2C[C@@H]3C[C@@H]3[C@H]2CCCCCn2c(nc3cc(C#N)ccc3c2=O)O[C@@H]2C[C@@H](C(=O)N[C@]3(C(=O)NS(=O)(=O)C4(C)CC4)C[C@H]3C(F)F)N(C2)C1=O [Example 25, (1aS,2aR,6S,9S,11R,24aR,24bS)-6-tert-butyl-15-cyano-N-[(1R,2R)-2-(difluoromethyl)-1-{[(1-methylcyclopropyl)sulfonyl]carbamoyl}cyclopropyl]-4,7,18-trioxo-1a,2,2a,4,5,6,7,10,11,20,21,22,23,24,24a,24b-hexadecahydro-1H,9H,18H-8,11-methanocyclopropa[4′,5′]cyclopenta[1′,2′:18,19][1,10,3,6,12]dioxatriazacyclonona decino[11,12-b]quinazoline-9-carboxamide] | 2 | 7.5 | 0.7 | 2.72 | 4.4 | 1.8 |
| COc1ccc2c(=O)n3c(nc2c1)O[C@@H]1C[C@@H](C(=O)N[C@]2(C(=O)NS(=O)(=O)C4(C)CC4)C[C@H]2C(F)F)N(C1)C(=O)[C@H](C(C)(C)C)NC(=O)O[C@@H]1C[C@@H]2C[C@@H]2[C@H]1CCCCC3 [Example 26, (1aS,2aR,6S,9S,11R,24aR,24bS)-6-tert-butyl-N-[(1R,2R)-2-(difluoromethyl)-1-{[(1-methylcyclopropyl)sulfonyl]carbamoyl}cyclopropyl]-15-methoxy-4,7,18-trioxo-1a,2,2a,4,5,6,7,10,11,20,21,22,23,24,24a,24b-hexadecahydro-1H,9H,18H-8,11-methanocyclopropa[4′,5′]cyclopenta[1′,2′:18,19][1,10,3,6,12]dioxatriazacyclonona decino[11,12-b]quinazoline-9-carboxamide] | 1 | 4.5 | 0.4 | 1.83 | 0.9 | 0.8 |
